Measured values: patent publication US20250257077A1, “BRIDGED BICYCLIC HETEROCYCLOALKYL PYRIDO-[3,4-d]PYRIDAZINE AMINE DERIVATIVES USEFUL AS NLRP3 INHIBITORS” (Ventus Therapeutics U.S., Inc., priority 2022, published 2025)
Converted amounts (≈) assume the structure as drawn. Read-outs that look alike come from different tables or passages of the source.

How the values were obtained:
[1] = Human Hepatocyte Stability Assay; assay type: in vitro ADME; conditions: human hepatocytes, 37° C.; read-out: Hep (human) (t½ min)
Procedure: (§1) (v) Mouse and Human Hepatocyte Stability Assays
(§2) A hepatocyte stability assay is a laboratory-based method used to determine the metabolic stability of a compound in hepatocytes (liver cells). This assay provides valuable information about how quickly a drug is metabolized in the liver and can be used to assess its potential effectiveness and safety in drug discovery.
(§3) In the assay, cither human or mouse hepatocytes are incubated with the test compound at a controlled temperature of 37° C., for different time periods (e.g., 5, 15, 30, 60, and 120 minutes). At each time point during the incubation, samples are taken, the reaction is terminated, and the amount of test compound remaining analyzed using LC-MS/MS to monitor the disappearance of the test compound over time (Gradient). […] See, e.g., Coe et al., Methods in Pharmacology & Toxicology (2008) 151.

[2] = Solubility Protocol in Phosphate Buffered Saline (PBS); assay type: physicochemical; conditions: for solubility kinetic at 2 h / solubility at 2 h: phosphate buffered saline (PBS), 18 °C, kinetic from dmso stock; for solubility kinetic at 2 h: aqueous buffer; for solubility kinetic at 2 h / Sol (PBS): PBS pH 7.4, 2 hours at room temperature, kinetic solubility; for solubility at 2 h: pH 7.4, aqueous buffer
Procedure: (vi) Solubility Protocol in Phosphate Buffered Saline (PBS)
The kinetic solubility of test compounds and control compounds was measured in commercial phosphate buffered saline (PBS), pH 7.4 (Wisent, Canada).
Briefly, a stock solution (20 mM DMSO for controls, and 10 mM DMSO for test compounds) was combined with PBS buffer to reach a targeted concentration of 400 μM for controls and 200 μM for test compounds. The spiked-PBS mixtures were then agitated on a VX-2500 multi-tube vortexer (VWR) for 2 hours at room temperature (18° C.). Following agitation, the samples were filtered on a glass fiber filter (1 μm) and the eluates were diluted 400-fold with a mixture of acetonitrile:water (1:1). Solubility determination was then performed against one standard sample prepared in high organic content at the expected top concentration. The lower limit of quantification was arbitrarily set at 1 μM (400-fold dilution of the top concentration) for assay controls, and 0.5 μM for test compounds. On each experimental run, nicardipine and imipramine were assessed as reference compounds for low and high solubility, respectively. All samples were assessed in triplicate and analyzed by LC-MS/MS (using a CTC PAL autosampler, Thermo Accela UPLC, and a Thermo Quantum mass spectrometer) using electrospray ionization against standards prepared in the same matrix

[3] = Brain Levels (Kp and Kpu,u); assay type: in vivo, CDI mice; conditions: for Kp at 24 h: mice dosed at 20 mpk PO, whole brain AUC over 24 h divided by plasma AUC
Procedure: (iv) Brain Levels (Kp and Kpu,u)—NLRP3
The in vivo total brain to plasma ratio was assessed in CDI mice after oral administration of the compound. Blood was collected at several timepoints up to 24 h, and transferred into plastic micro centrifuge tubes with EDTA-K2 as anticoagulant. Blood samples were centrifuged at 4000 g for 5 minutes at 4° C., to obtain plasma, then immediately frozen and stored at −75±15° C., prior to analysis. Animals were terminally anaesthetized with a rising concentration of CO2 gas at about 1 minute. At selected timepoints, whole brains were removed from the skull, rinsed in cold PBS to remove blood, dried with clean gauze, then frozen in liquid nitrogen and kept at −75±15° C. before analysis. At the time of analysis, brain samples were homogenized with PBS by tissue weight (g) to PBS volume (mL) ratio 1:3.
Plasma and brain drug levels were quantified by LC/MS/MS on an AB Sciex Triple Quad 5500+instrument, after separation on a HALO 160 A ES-C18, 2.7 μm 2.1×50 mm column. Quantitation was performed using a calibration curve prepared in blank plasma or blank brain homogenate. The software WinNonlin (Phoenix™) was used for pharmacokinetic analysis from the concentrations versus time data, including the AUCinf and AUClast. The Kp ratio (total brain concentration over total plasma concentration) was calculated as (AUCtot,br)/(AUCtot,pl).
The unbound brain exposure was assessed as Kpuu, which is the free brain/free plasma concentration ratio (Cu,bt/Cu,pl). The Cu,br/Cu,pl ratios were obtained from in vivo total brain to plasma ratios (Ctot,br/Ctot,pl) by using in vitro determined Fu,br and Fu,pl.
Plasma protein binding and brain homogenate protein binding were measured by equilibrium dialysis in a HTDialysis plate. The dialysis membranes were soaked in ultrapure water for 60 minutes to separate strips, then in 20% ethanol for 20 minutes, finally in dialysis buffer for 20 minutes. The dialysis set up was assembled according to the manufacturer's instruction. Each cell received 150 μL of plasma or brain homogenate spiked with 1 mM of compound, and dialyzed against an equal volume of dialysis buffer (PBS). The dialysis plate was sealed and incubated in an incubator at 37° C. with 5% CO2 at 100 rpm for 6 hours. At the end of incubation, compound concentration was measured in both chambers by LC-MS/MS on a Triple Quad™ 5500 from AB Inc after separation on a XSelect Hss T3.2.5μ (2.1×30 mm) column. Free fraction (Fu) was calculated as (Peak Area Ratio buffer chamber/Peak Area Ratio plasma chamber). Kpuu=(AUCtot,br×Fu,br)/([…])
The Kpu,u was then calculated upon correcting this kp value with mouse plasma protein binding and mouse brain homogenates binding.
A Kpu,u value >0.3 is considered brain penetrant, and a Kpu,u value ≤0.3 is not considered brain penetrant. When the Kpu,u value is not determined, the Kp value may be useful as a metric of potential brain penetrance if the Kp value is >0.3.

[4] = target: T1, human NLRP3 (Homo sapiens, UniProt Q96P20); assay: Human Whole Blood (hWB) NLRP3 Assay; assay type: cell-based; conditions: LPS priming, ATP activation, IL-1β levels
T1 construct: Human whole blood is drawn from healthy volunteers after obtaining written informed consent; from tissue
T1 sequence (Q96P20 whole entry): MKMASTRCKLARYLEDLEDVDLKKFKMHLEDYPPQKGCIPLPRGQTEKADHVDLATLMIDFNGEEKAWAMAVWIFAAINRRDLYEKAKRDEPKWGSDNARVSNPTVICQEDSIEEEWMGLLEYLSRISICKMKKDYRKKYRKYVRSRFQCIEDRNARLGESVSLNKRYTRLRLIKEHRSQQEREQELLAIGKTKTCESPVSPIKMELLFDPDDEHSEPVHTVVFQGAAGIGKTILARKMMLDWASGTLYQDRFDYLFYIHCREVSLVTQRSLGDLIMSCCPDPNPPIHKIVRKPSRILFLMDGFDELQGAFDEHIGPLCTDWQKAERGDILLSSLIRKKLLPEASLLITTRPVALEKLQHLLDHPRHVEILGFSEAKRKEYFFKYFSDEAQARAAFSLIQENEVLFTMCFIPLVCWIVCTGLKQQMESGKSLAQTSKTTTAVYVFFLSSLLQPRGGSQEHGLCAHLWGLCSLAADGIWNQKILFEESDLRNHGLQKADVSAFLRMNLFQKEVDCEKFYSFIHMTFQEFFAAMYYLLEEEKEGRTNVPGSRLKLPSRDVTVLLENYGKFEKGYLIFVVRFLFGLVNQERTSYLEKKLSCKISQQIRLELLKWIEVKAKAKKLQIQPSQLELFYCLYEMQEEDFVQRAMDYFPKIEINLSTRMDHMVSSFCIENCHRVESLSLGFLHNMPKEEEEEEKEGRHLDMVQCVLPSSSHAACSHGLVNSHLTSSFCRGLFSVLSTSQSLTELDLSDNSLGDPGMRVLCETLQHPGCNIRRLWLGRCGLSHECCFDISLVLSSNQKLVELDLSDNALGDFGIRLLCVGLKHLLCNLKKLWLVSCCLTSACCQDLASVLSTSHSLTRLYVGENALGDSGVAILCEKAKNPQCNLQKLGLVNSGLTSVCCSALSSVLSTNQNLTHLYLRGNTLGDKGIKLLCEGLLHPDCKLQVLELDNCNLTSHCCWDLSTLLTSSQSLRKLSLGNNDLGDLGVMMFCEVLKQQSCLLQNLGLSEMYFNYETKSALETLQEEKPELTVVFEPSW
Procedure: (ii) Human Whole Blood (hWB) NLRP3 Assay
Human whole blood is drawn from healthy volunteers after obtaining written informed consent. Heparin lithium coated tubes are used to collect blood from volunteers. Blood samples are distributed on 96 well plates using 90 μl per well. Priming is performed by adding 5 μl of LPS (026: B6; Sigma L-2654) at a final concentration of 1 μg/ml for 4.5 hours in a humidified incubator with 37° C. 5% CO2. Thirty minutes prior to NLRP3 activation, 5 μl of a 20× compound solution or vehicle (2% dimethylsulfoxide (DMSO)) is added to each well and plates were incubated on a shaker (450 rpm) in a humidified incubator with 37° C., 5% CO2. Activation is then performed by adding 3.3 μl of a 31× ATP solution per well. At the end of the 30 minutes stimulation, the plates are centrifuged (800 g, 10 min, room temperature) and the plasma from each well is frozen at −80° C. IL-1β levels in the supernatant were analyzed using a mesoscale discovery assay (MSD K151TUK) according to the manufacturers’ instructions.

[5] = Mouse Hepatocyte Stability Assay; assay type: in vitro ADME; conditions: mouse hepatocytes, 37° C.; read-out: Hep (mouse) (t½ min)
Procedure: as §1, §2, §3

[6] = CDI, mouse, brain (whole brain homogenate) relative to plasma, oral, 20 mpk, brain levels, mice
[7] = CDI, mouse, brain (whole brain homogenate) relative to plasma, po, 20 mg/kg, Kp corrected with mouse plasma protein binding and mouse brain homogenates binding, 20 mpk PO, read-out: Kpu,u
[8] = CDI, mouse, brain (whole brain homogenate) relative to plasma, po, 20 mg/kg
[9] = CDI, mouse, brain (whole brain homogenate) relative to plasma, oral, 20 mpk, brain levels, unbound, mice, read-out: Kpu,u

half-life [1]	solubility kinetic at 2 h [2]	solubility at 2 h [2]	Kp [3, 6]	Kpu,u [3, 7]	Kp at 24 h [3, 8]	Kpu,u ([3]; brain levels, unbound, mice)	IC50 [4]	half-life [5]	Sol (PBS) [2]	Kpu,u [3, 9]	Compound
> 4 h	> 300 µM	> 300 µM	0.3	0.15	0.3	0.15 —	1.16 µM	2.17 h			Oc1cc(Cl)ccc1-c1nnc(N[C@@H]2C[C@@H]3CC[C@H]2O3)c2cnccc12 (single isomer, unassigned) [Compound 3A*]
3.17 h		2.1 µM (≈ 0.845 µg/mL)	0.46	0.49	0.46	0.49	0.92 µM	1.83 h	2.1 µM		Oc1cc(C(F)(F)F)ccc1-c1nnc(N[C@@H]2C[C@@H]3CC[C@H]2O3)c2cnccc12 (single isomer, unassigned) [Compound 10A*]
> 8 h		1.9 µM (≈ 0.689 µg/mL)	0.27	0.16	0.27		0.33 µM	1.18 h	1.9 µM	0.16	Cc1ccc(-c2nnc(N[C@H]3C[C@H]4CC[C@@H](C3)O4)c3cnccc23)c(O)c1 [Compound 2A*-r, 2-(4-(((1R,3r,5S)-8-oxabicyclo[3.2.1]octan-3-yl)amino)pyrido[3,4-d]pyridazin-1-yl)-5-methylphenol]
> 8 h		2.4 µM (≈ 0.999 µg/mL)	0.13	0.09	0.13		1.1 µM	3.33 h	2.4 µM	0.09	Oc1cc(C(F)(F)F)ccc1-c1nnc(N[C@H]2C[C@H]3CC[C@@H](C2)O3)c2cnccc12 [Compound 4A*-r, 2-(4-(((1R,3r,5S)-8-oxabicyclo[3.2.1]octan-3-yl)amino)pyrido[3,4-d]pyridazin-1-yl)-5-(trifluoromethyl)phenol]
> 4 h		25 µM (≈ 9.57 µg/mL)	0.87	0.44	0.87		0.15 µM	2.67 h	25 µM	0.44	Oc1cc(Cl)ccc1-c1nnc(N[C@H]2[C@@H]3CC[C@H]2COC3)c2cnccc12 [Compound 5A, 2-(4-(((1R,5S,8s)-3-oxabicyclo[3.2.1]octan-8-yl)amino)pyrido[3,4-d]pyridazin-1-yl)-5-chlorophenol]
> 4 h	> 300 µM			0.51	0.76		0.2 µM	2.67 h	>300 µM		Cc1ccc(-c2nnc(N[C@H]3[C@@H]4CC[C@H]3COC4)c3cnccc23)c(O)c1 [Compound 6A, 2-(4-(((1R,5S,8s)-3-oxabicyclo[3.2.1]octan-8-yl)amino)pyrido[3,4-d]pyridazin-1-yl)-5-methylphenol]
> 4 h	0.7 µM (≈ 0.279 µg/mL)			0.06	0.08		0.81 µM	3.83 h	0.7 µM		Oc1cc(C(F)F)ccc1-c1nnc(N[C@H]2C[C@H]3CC[C@@H](C2)O3)c2cnccc12 [Compound 11A*-r, 2-(4-(((1R,3r,5S)-8-oxabicyclo[3.2.1]octan-3-yl)amino)pyrido[3,4-d]pyridazin-1-yl)-5-(difluoromethyl)phenol]
4.83 h	1.4 µM (≈ 0.583 µg/mL)			0.08	0.1		0.34 µM	1.67 h	1.4 µM		Oc1cc(C(F)(F)F)ccc1-c1nnc(N[C@H]2[C@@H]3CC[C@H]2COC3)c2cnccc12 [Compound 13A, 2-(4-(((1R,5S,8s)-3-oxabicyclo[3.2.1]octan-8-yl)amino)pyrido[3,4-d]pyridazin-1-yl)-5-(trifluoromethyl)phenol]
> 8 h	11 µM (≈ 4.38 µg/mL)			0.2	0.37		0.2 µM	2 h	11 µM		Oc1cc(C(F)F)ccc1-c1nnc(N[C@H]2[C@@H]3CC[C@H]2COC3)c2cnccc12 [Compound 14A, 2-(4-(((1R,5S,8s)-3-oxabicyclo[3.2.1]octan-8-yl)amino)pyrido[3,4-d]pyridazin-1-yl)-5-(difluoromethyl)phenol]
> 8 h	> 300 µM			0.45	0.41		0.34 µM	0.483 h	>300 µM		Cc1ccc(-c2nnc(N[C@H]3[C@@H]4CC[C@H]3COC4)c3cnccc23)c(O)c1F [Compound 15A, 6-(4-(((1R,5S,8s)-3-oxabicyclo[3.2.1]octan-8-yl)amino)pyrido[3,4-d]pyridazin-1-yl)-2-fluoro-3-methylphenol]
